According to US20240279304A1, “DSG2 COMPOSITIONS AND METHODS” (Arvada Therapeutics, Inc., priority 2021, published 2024):
“Also recorded” adds a separate entry of the source.

Experiments:
anti-DSG2 antibody = anti-DSG2 antibody meso scale discovery (MSD) assay, blocking of anti-DSG2 antibody; format: binding; details: for % inhibition: fraction C (table title)
Experimental: (§1) The DSG2 fusion polypeptides were tested for the ability to block anti-DSG2 antibody by an anti-DSG2 antibody meso scale discovery (MSD) assay. […] The DSG2 fusion polypeptides were subjected to size exclusion chromatography and different elution fractions were examined. […] As shown in Table 7 and FIG. 1B, FIG. 1C, and FIG. 1D, enriching for fraction C improved the ability of the DSG2 fusion polypeptides to block ARVC patient serum.

[1] = system: ARVC serum (anti-DSG2 antibodies in serum obtained from ARVC patients); experiment: anti-DSG2 antibody MSD assay, blocking of ARVC patient serum; format: binding, human; parameters: % inhibition: concentration or dose not given beside the values; details: for % inhibition: fraction C (table title)
Experimental: as §1
ARVC diagnosis is based on complex tool known as Task Force Criteria, which can lead to varying levels of conviction about ARVC diagnosis. The utility of DSG2 antibodies as an indicator of ARVC disease state and severity was explored. Approximately 50 cc serum was collected from diagnosed ARVC patients. A total of 10 ARVC patients and 5 healthy controls were used for the analysis. ARVC serum samples were separated into more robust diagnosis and less robust diagnosis, based on available data in the patient medical records and anti-DSG2 antibody levels were compared using an anti-DSG2 antibody meso scale discovery (MSD)-based assay.

[2] = system: human iPSC cardiomyocytes; experiment: CiPA multielectrode array (MEA) assay, sodium spike; format: cell-based; details: 1.1 μg/mL DSG2FP #1; anti-DSG2 antibodies 0.5 μg/mL
Experimental: To determine the effect of anti-DSG2 antibodies in cardiomyocytes, the cardiac in vitro proarrhythmia (CiPA) assay was performed (Sager et al. Am Heart J 2014; 167:292-300; the contents of which are herein incorporated by reference in its entirety). CiPA is envisioned to consist of four components: (1) an evaluation of the effects of test agents on cardiac ion channel assays; (2) in silico modeling of the cardiac action potential based on the ion channel results to integrate the data with cardiac function; (3) experimental measurement of test agent effects in human ventricular myocytes to confirm the modeling result; and (4) scoring the results. […] The sodium spike quantified below is a measurement of the specific sodium channel current in the cardiomyocyte and is also described in Blinova K, et al. Cell Rep. […] The parameters evaluated include measuring a change in the spike in the component of electrical signal propagation (e.g. sodium spike) and cell index—a function of cell impedance and cell number. […]
Commercially available anti-DSG2 antibodies were tested in the cardiomyocyte CiPA assay. […] The voltage (μV) is measured at time intervals of 0, 1 hour, 12 hours, 24 hours, 48 hours, 72 hours, and 96 hours. […]

[3] = system: human iPSC-derived cardiomyocytes; experiment: CiPA multielectrode array (MEA) assay, cell index; format: cell-based
Experimental: To determine the effect of anti-DSG2 antibodies in cardiomyocytes, the cardiac in vitro proarrhythmia (CiPA) assay was performed (Sager et al. Am Heart J 2014; 167:292-300; the contents of which are herein incorporated by reference in its entirety). CiPA is envisioned to consist of four components: (1) an evaluation of the effects of test agents on cardiac ion channel assays; (2) in silico modeling of the cardiac action potential based on the ion channel results to integrate the data with cardiac function; (3) experimental measurement of test agent effects in human ventricular myocytes to confirm the modeling result; and (4) scoring the results. The multielectrode array (MEA) assay is a component of CiPA which uses human induced pluripotent stem cell (iPSC)-derived cardiomyocytes to evaluate two-dimensional excitation propagation by recording spontaneous ECG-like field potentials. The sodium spike quantified below is a measurement of the specific sodium channel current in the cardiomyocyte and is also described in Blinova K, et al. Cell Rep. 2018 Sep. 25; 24(13):3582-3592 (the contents of which are herein incorporated by reference in its entirety). CiPA is considered a clinically validated cardiomyocyte-based assay by the FDA and the EMA. […] The parameters evaluated include measuring a change in the spike in the component of electrical signal propagation (e.g. sodium spike) and cell index—a function of cell impedance and cell number. Changes in sodium spike may be indicative of arrhythmia and a change in cell index (CI) may be indicative of changes to cell connectivity.
Cell index is inversely related the cell layer's conductivity to electrical current. Increased conductivity across the cell layer, may indicate that there are more gaps in the cell layer, implying that the cells are less well-adhered to each other. Thus, increased conductivity across the cell layer, may result in lower cell index. […] The concentration of anti-DSG2 antibodies varied from 0.00005 μg/mL to 5 μg/mL. […] The concentration of lidocaine varied from 3 μM to 100 μM. […] The concentration of anti-DSG2 antibodies varied from 0.00005 μg/mL to 5 μg/mL.

## DSG2FP#1: R&D Systems DSG2 extracellular domain (49-608 of SEQ ID NO: 30); linker IEGRMD; amino acids 100-330 of IgG1
anti-DSG2 antibody
  ability to bind to and block anti-DSG2 antibody (in words): able to bind and block anti-DSG2 antibody
anti-DSG2 antibody; sample: Anti-DSG2 antibody (200 ng/mL) control
  % inhibition: 63.8%
anti-DSG2 antibody; sample: Anti-DSG2 antibody (1000 ng/mL) control
  % inhibition: 88.4%
anti-DSG2 antibody; sample: no antibody control
  % inhibition: 4.8%
[1]
  ability to bind and block ARVC serum (in words): able to bind and block anti-DSG2 antibody as well as serum obtained from ARVC patients
[1]; Example 3, competing DSG2 polypeptide added
  blocking of assay signal from ARVC patient serum samples with strong clinical data (in words): could also be blocked
[1]; sample: ARVC serum 1
  % inhibition: 96.7%
[1]; sample: ARVC serum 2
  % inhibition: 82.9%
[1]; sample: ARVC serum 3
  % inhibition: 95.8%
[1]; sample: ARVC serum 4
  % inhibition: 95.7%
[1]; sample: ARVC serum 5
  % inhibition: 93.1%
[2]
  rescue of the effect of anti-DSG2 antibodies on cardiomyocyte sodium spike (in words): rescued; also recorded: completely blocks the effect of the anti-DSG2 antibodies on the sodium spike
[3]
  reversal of effects of anti-DSG2 antibodies on cell index (in words): reversed; also recorded: completely blocks the effect of the anti-DSG2 antibodies
[3]; added with Anti-DSG2 antibody (0.00005 μg/mL)
  Cell Index (+/- SEM): 22.4 (1.9)
[3]; added with Anti-DSG2 antibody (0.0005 μg/mL)
  Cell Index (+/- SEM): 22.4 (1.1)
[3]; added with Anti-DSG2 antibody (0.005 μg/mL)
  Cell Index (+/- SEM): 20.4 (0.5)
[3]; added with Anti-DSG2 antibody (0.05 μg/mL)
  Cell Index (+/- SEM): 21.6 (0.4)
[3]; added with Anti-DSG2 antibody (0.5 μg/mL)
  Cell Index (+/- SEM): 22.0 (0.8)
[3]; added with Anti-DSG2 antibody (5 μg/mL)
  Cell Index (+/- SEM): 24.1 (0.5)
[3]; added with Anti-VCAM1 antibody (0.00005 μg/mL)
  Cell Index (+/- SEM): 23.2 (0.7)
[3]; added with Anti-VCAM1 antibody (0.0005 μg/mL)
  Cell Index (+/- SEM): 22.0 (0.5)
[3]; added with Anti-VCAM1 antibody (0.005 μg/mL)
  Cell Index (+/- SEM): 21.0 (0.5)
[3]; added with Anti-VCAM1 antibody (0.05 μg/mL)
  Cell Index (+/- SEM): 21.0 (0.4)
[3]; added with Anti-VCAM1 antibody (0.5 μg/mL)
  Cell Index (+/- SEM): 21.8 (0.5)
[3]; added with Anti-VCAM1 antibody (5 μg/mL)
  Cell Index (+/- SEM): 24.6 (0.5)
[3]; added with Rabbit IgG (0.00005 μg/mL)
  Cell Index (+/- SEM): 22.5 (1.7)
[3]; added with Rabbit IgG (0.0005 μg/mL)
  Cell Index (+/- SEM): 22.4 (1.3)
[3]; added with Rabbit IgG (0.005 μg/mL)
  Cell Index (+/- SEM): 21.0 (0.8)
[3]; added with Rabbit IgG (0.05 μg/mL)
  Cell Index (+/- SEM): 21.3 (0.4)
[3]; added with Rabbit IgG (0.5 μg/mL)
  Cell Index (+/- SEM): 21.1 (0.4)
[3]; added with Rabbit IgG (5 μg/mL)
  Cell Index (+/- SEM): 24.2 (0.5)
